Data published in patent US20080221086A1, “Novel Inhibitors of Glutaminyl Cyclase” (PROBIODRUG AG, priority 2006, published 2008).

Target: hQC (Homo sapiens, UniProt Q16769)
Test: Fluorometric assay of glutaminyl cyclase (QC) inhibition, H-Gln-βNA or H-Gln-AMC substrate
Type: biochemical
Details: compound from preparative synthesis, purified by chromatography; fluorescent assay; read-out: IC50 hQC
Procedure: All compounds were immediately tested regarding their activity as hQC inhibitors.
The purity of the compounds was determined by HPLC-MS. The IC50 value against hQC was measured using the fluorescent assay.
All measurements were performed with a BioAssay Reader HTS-7000Plus for microplates (Perkin Elmer) at 30° C. QC activity was evaluated fluorometrically using H-Gln-βNA. The samples consisted of 0.2 mM fluorogenic substrate, 0.25 U pyroglutamyl aminopeptidase (Unizyme, Hørsholm, Denmark) in 0.2 M Tris/HCl, pH 8.0 containing 20 mM EDTA and an appropriately diluted aliquot of QC in a final volume of 250 μl. Excitation/emission wavelengths were 320/410 nm. The assay reactions were initiated by addition of glutaminyl cyclase. QC activity was determined from a standard curve of β-naphthylamine under assay conditions. One unit is defined as the amount of QC catalyzing the formation of 1 μmol pGlu-βNA from H-Gln-βNA per minute under the described conditions.
In a second fluorometric assay, QC was activity was determined using H-Gln-AMC as substrate. Reactions were carried out at 30° C. utilizing the NOVOStar reader for microplates (BMG labtechnologies). The samples consisted of varying concentrations of the fluorogenic substrate, 0.1 U pyroglutamyl aminopeptidase (Qiagen) in 0.05 M Tris/HCl, pH 8.0 containing 5 mM EDTA and an appropriately diluted aliquot of QC in a final volume of 250 μl. Excitation/emission wavelengths were 380/460 nm. The assay reactions were initiated by addition of glutaminyl cyclase. QC activity was determined from a standard curve of 7-amino-4-methylcoumarin under assay conditions. The kinetic data were evaluated using GraFit software.
For inhibitor testing, the sample composition was the same as described above, except of the putative inhibitory compound added. For a rapid test of QC-inhibition, samples contained 4 mM of the respective inhibitor and a substrate concentration at 1 KM. For detailed investigations of the inhibition and determination of Ki-values, influence of the inhibitor on the auxiliary enzymes was investigated first. In every case, there was no influence on either enzyme detected, thus enabling the reliable determination of the QC inhibition. The inhibitory constant was evaluated by fitting the set of progress curves to the general equation for competitive inhibition using GraFit software.

Sequence of hQC (Q16769 29-361): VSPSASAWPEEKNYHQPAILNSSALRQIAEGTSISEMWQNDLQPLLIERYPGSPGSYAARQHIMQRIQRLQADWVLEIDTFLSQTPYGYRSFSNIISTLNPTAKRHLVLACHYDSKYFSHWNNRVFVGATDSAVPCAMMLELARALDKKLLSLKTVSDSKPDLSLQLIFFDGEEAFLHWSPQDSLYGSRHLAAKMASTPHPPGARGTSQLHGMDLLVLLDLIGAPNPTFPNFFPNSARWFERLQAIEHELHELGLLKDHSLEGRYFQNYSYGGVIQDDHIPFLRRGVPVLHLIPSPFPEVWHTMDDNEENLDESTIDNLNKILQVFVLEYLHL

IC50 [µM]	Compound
1.23	CC(/N=C1\NC(=O)N(c2ccc3[nH]cnc3c2)C1c1ccccc1C(F)(F)F)C(C)(C)C (stereo not drawn) [Compound 138, 1-(1H-Benzoimidazol-5-yl)-5-(2-trifluoromethyl-phenyl)-4-1,2,2-trimethyl-propylimino-imidazolidin-2-one]
0.0274	O=C1CCCN1CCC/N=C1/NC(=O)N(c2ccc3[nH]cnc3c2)C1c1ccc2c(c1)OCO2 (stereo not drawn) [Compound 168, 5-Benzo[1,3]dioxol-5-yl-1-(1H-benzoimidazol-5-yl)-4-(3-(2-oxo-pyrrolidin-1-yl)-propylimino)-imidazolidin-2-one]

Same assay, conditions: read-out: IC50

Compound	IC50 [µM]
O=C1N/C(=N\C2CCCCC2)C(c2cc(F)cc(F)c2)N1CCCn1ccnc1 (stereo not drawn) [Compound 4, 4-Cyclohexylimino-5-(3,5-difluoro-phenyl)-1-(3-imidazol-1-yl-propyl)-imidazolidin-2-one]	8.1
S=C1N/C(=N/CCCc2ccccc2)C(c2cc(Br)cc(Br)c2)N1c1ccc2[nH]cnc2c1 (stereo not drawn) [Compound 131, 1-(1H-Benzoimidazol-5-yl)-5-(3,5-dibromo-phenyl)-4-3-phenyl-propylimno-imidazolidine-2-thione]	5.8
O=C1N/C(=N\CCC(c2ccccc2)c2ccccc2)C(C2CCC=CO2)N1CCCn1ccnc1 (stereo not drawn) [Compound 106, 5-(3,4-Dihydro-2H-pyran-2-yl)-4-3,3-diphenyl-propylimino-1-(3-imidazol-1-yl-propyl)-imidazolidin-2-one]	7.6
CC(C)/N=C1\NC(=O)N(c2ccc3[nH]cnc3c2)C1c1cccc(C#N)c1 (stereo not drawn) [Compound 174, 3-{3-(1H-Benzoimidazol-5-yl)-5-isopropylimino-2-oxo-imidazolidin-4-yl}-benzonitrile]	0.4
O=C(C/N=C1/NC(=O)N(CCCn2ccnc2)C1C1CCC=CO1)N1CCc2ccccc2C1 (stereo not drawn) [Compound 67, 4-2-(3,4-Dihydro-1H-isoquinolin-2-yl)-2-oxo-ethylimino-5-(3,4-dihydro-2H-pyran-2-yl)-1-(3-imidazol-1-yl-propyl)-imidazolidin-2-one]	4.9
O=C1N/C(=N/CCc2c[nH]c3ccccc23)C(c2ccco2)N1CCCn1ccnc1 (stereo not drawn) [Compound 58, 5-Furan-2-yl-1-(3-imidazol-1-yl-propyl)-4-2-(1H-indol-3-yl)-ethylimino-imidazolidin-2-one]	6.7
CC1=CC(C)C(C2C(=NCC(=O)N3CCSCC3)NC(=O)N2c2ccc3[nH]cnc3c2)CC1 (stereo not drawn) [Compound 294, 1-(1H-Benzoimidazol-5-yl)-5-(2,4-dimethyl-cyclohex-3-enyl)-4-2-oxo-2-thiomorpholin-4-yl-ethylimino-imidazolidin-2-one]	1.3
O=C1N/C(=N\C(c2ccccc2)c2ccccc2)C(c2cc(F)cc(F)c2)N1CCCn1ccnc1 (stereo not drawn) [Compound 84, 4-Benzhydrylimino-5-(3,5-difluoro-phenyl)-1-(3-imidazol-1-yl-propyl)-imidazolidin-2-one]	3.1
Cc1ccc2c(C3/C(=N\Cc4ccccc4)NC(=O)N3c3ccc4[nH]cnc4c3)c[nH]c2c1 (stereo not drawn) [Compound 230, 1-(1H-Benzoimidazol-5-yl)-4-benzylimino-5-(6-methyl-1H-indol-3-yl)-imidazolidin-2-one]	0.004
CN1CCCN(C(=O)C/N=C2/NC(=O)N(c3ccc4[nH]cnc4c3)C2c2ccc3c(c2)OCCO3)CC1 (stereo not drawn) [Compound 306, 1-(1H-Benzoimidazol-5-yl)-5-(2,3-dihydro-benzo1,4dioxin-6-yl)-4-2-(4-methyl-1,4diazepan-1-yl)-2-oxo-ethylimino-imidazolidin-2-one]	2.2
O=C1N/C(=N/CCc2cccs2)C(c2cc(F)cc(F)c2)N1CCCn1ccnc1 (stereo not drawn) [Compound 41, 5-(3,5-Difluoro-phenyl)-1-(3-imidazol-1-yl-propyl)-4-2-thiophen-2-yl-ethylimino-imidazolidin-2-one]	3.1
O=C1N/C(=N/Cc2ccccc2)C(c2ccccc2)N1CCCn1ccnc1 (stereo not drawn) [Compound 92, 4-Benzylimino-1-(3-imidazol-1-yl-propyl)-5-phenyl-imidazolidin-2-one]	8.5
CCCCC1/C(=N/C(c2ccccc2)c2ccccc2)NC(=O)N1CCCn1ccnc1 (stereo not drawn) [Compound 86, 4-Benzhydrylimino-5-butyl-1-(3-imidazol-1-yl-propyl)-imidazolidin-2-one]	5.8
S=C1N/C(=N/CCCc2ccccc2)C(c2ccc3[nH]ccc3c2)N1c1ccc2[nH]cnc2c1 (stereo not drawn) [Compound 284, 1-(1H-Benzoimidazol-5-yl)-5-(1H-indol-5-yl)-4-3-phenyl-propylimino-imidazolidine-2-thione]	1.3
O=C1N/C(=N/Cc2ccc(Cl)cc2)C(c2cc(F)cc(F)c2)N1CCCn1ccnc1 (stereo not drawn) [Compound 19, 4-4-Chloro-benzylimino-5-(3,5-difluoro-phenyl)-1-(3-imidazol-1-yl-propyl)-imidazolidin-2-one]	4
O=C1CCCN1CCC/N=C1/NC(=O)N(c2ccc3[nH]cnc3c2)C1c1ccc2c(c1)OCO2 (stereo not drawn) [Compound 168, 5-Benzo[1,3]dioxol-5-yl-1-(1H-benzoimidazol-5-yl)-4-(3-(2-oxo-pyrrolidin-1-yl)-propylimino)-imidazolidin-2-one]	0.004
CC1/C(=N\CCc2c[nH]c3ccccc23)NC(=O)N1CCCn1ccnc1 (stereo not drawn) [Compound 48, 1-(3-Imidazol-1-yl-propyl)-4-2-(1H-indol-3-yl)-ethylimino-5-methyl-imidazolidin-2-one]	7.6

Further compounds by falling IC50, results first:

IC50 [µM]	Compound
8.3	O=C(C/N=C1/NC(=O)N(CCCn2ccnc2)C1c1ccc(Cl)c(F)c1)N1Cc2ccccc2C1 (stereo not drawn) [Compound 13, 5-(4-Chloro-3-fluoro-phenyl)-4-2-(1,3-dihydro-isoindol-2-yl)-2-oxo-ethylimino-1-(3-imidazol-1-yl-propyl)-imidazolidin-2-one]
7.6	1-(1H-Benzoimidazol-5-yl)-5-benzo[c][1,2,5]-5-yl-4-2-bromo-phenylimino-imidazolidine-2-thione [Compound 295]
7.6	CC1=CC(C)C(C2/C(=N/C(C)C(C)(C)C)NC(=S)N2c2ccc3nc[nH]c3c2)CC1 (stereo not drawn) [Compound 276, 1-(1H-Benzoimidazol-5-yl)-5-(2,4-dimethyl-cyclohex-3-enyl)-4-1,2,2-trimethyl-propylimino-imidazolidine-2-thione]
6.7	CC(CC1/C(=N/C2CCCc3ccccc32)NC(=S)N1c1ccc2[nH]cnc2c1)CC(C)(C)C (stereo not drawn) [Compound 150, 1-(1H-Benzoimidazol-5-yl)-4-1,2,3,4-tetrahydro-naphthalen-1-ylimino-5-(2,4,4-trimethyl-pentyl)-imidazolidine-2-thione]
6.7	CC(C)C1/C(=N\C(C)(C)CC(C)(C)C)NC(=S)N1c1ccc2[nH]cnc2c1 (stereo not drawn) [Compound 178, 1-(1H-Benzoimidazol-5-yl)-5-isopropyl-4-1,1,3,3-tetramethyl-butylimino-imidazolidine-2-thione]
6.7	O=C1N/C(=N\C(c2ccccc2)c2ccccc2)C(CO)N1CCCn1ccnc1 (stereo not drawn) [Compound 85, 4-Benzhydrylimino-5-hydroxymethyl-1-(3-imidazol-1-yl-propyl)-imidazolidin-2-one]
6.7	Fc1ccc(Cl)c(F)c1C1/C(=N/c2c(Cl)cccc2Cl)NC(=S)N1c1ccc2nc[nH]c2c1 (stereo not drawn) [Compound 188, 1-(3H-Benzoimidazol-5-yl)-5-(3-chloro-2,6-difluoro-phenyl)-4-2,6-dichloro-phenylimino-imidazolidine-2-thione]
6.5	CC(/N=C1\NC(=O)N(CCCn2ccnc2)C1c1cccc(F)c1F)c1ccccc1 (stereo not drawn) [Compound 9, 5-(2,3-Difluoro-phenyl)-1-(3-imidazol-1-yl-propyl)-4-1-phenyl-ethylimino-imidazolidin-2-one]
5.8	Cc1ccc2occ(C3/C(=N/C4CCCCC4O)NC(=S)N3c3ccc4[nH]cnc4c3)c(=O)c2c1 (stereo not drawn) [Compound 203, 3-{3-(1H-Benzoimidazol-5-yl)-5-2-hydroxy-cyclohexylimino-2-thioxo-imidazolidin-4-yl}-6-methyl-chromen-4-one]
4	O=C1CCCN1CCCN=C1NC(=S)N(c2ccc3[nH]cnc3c2)C1c1ccc2nsnc2c1 (stereo not drawn) [Compound 231, 1-{3-1-(1H-Benzoimidazol-5-yl)-5-benzo[c][1,2,5]thiadiazol-5-yl-2-thioxo-imidazolidin-(4Z)-ylideneamino-propyl}-pyrrolidin-2-one]
4	O=C(C/N=C1\NC(=S)N(c2ccc3[nH]cnc3c2)C1c1cc2ccccc2s1)N1CCSCC1 (stereo not drawn) [Compound 207, 2-(5-(benzo[b]thiophen-2-yl)-1-(1H-benzo[d]imidazol-5-yl)-2-thioxoimidazolidin-4-ylideneamino)-1-thiomorpholinoethan-one]
3.1	S=C1N/C(=N/CCCc2ccccc2)C(c2cc3ccccc3s2)N1c1ccc2[nH]cnc2c1 (stereo not drawn) [Compound 258, 5-Benzobthiophen-2-yl-1-(1H-benzoimidazol-5-yl)-4-3-phenyl-propylimino-imidazolidine-2-thione]
0.004	CC(/N=C1\NC(=O)N(c2ccc3[nH]cnc3c2)C1c1ccccc1C(F)(F)F)C(C)(C)C (stereo not drawn) [Compound 138, 1-(1H-Benzoimidazol-5-yl)-5-(2-trifluoromethyl-phenyl)-4-1,2,2-trimethyl-propylimino-imidazolidin-2-one]
0.004	O=C1N/C(=N\C2CCCC2)C(c2ccc3ccccc3c2)N1c1ccc2[nH]cnc2c1 (stereo not drawn) [Compound 171, 1-(1H-Benzoimidazol-5-yl)-4-cyclopentylimino-5-naphthalen-2-yl-imidazolidin-2-one]
